Structures can show the parent of a compound that is named as a salt.
How the values were obtained:
[1] = tested on: left sciatic nerve of rats; experiment: Sciatic nerve blocking experiment in rats (Von Frey filaments 60 g); format: in vivo, rat
Method: The compounds of the examples were dissolved in water for injection to a concentration of 0.5-2.0 g/100 mL (0.5%-2%), or mixed with commercially-available clinically-common local anesthetic drugs to prepare a mixed solution with a specific proportion, and the 0.75% levobupivacaine was used as the positive control compound. The experimental method was as follows: male SD rats weighing 180-300 g were anesthetized with isoflurane, 0.2 mL of the drug-containing solution was injected near the left sciatic nerve of rats, and 8 rats were used for each drug for the experiment. After the rats woke up, the first measurement was performed, and then the measurement was performed every 2 hours. If there was still an anesthetic effect after six measurements, the measurement was performed every 6 hours until the anesthetic effect disappeared. The method for judging the existence of anesthetic effect was as follows. The skin of the sole and lateral surface of the hindlimb of the rat on the side injected with the drug was stimulated using Von Frey filaments (60 g). […] If there was no such behavior, it was considered that the local anesthetic effect existed.

male SD rats = experiment: Subcutaneous infiltration anesthesia in rats (acupuncture stimulation of back skin); format: in vivo, rat; settings: for Duration of local anesthesia: 0.4 mL subcutaneous
Method: The compounds of the examples were dissolved in water for injection to a concentration of 0.2-0.5 g/100 mL (0.2-0.5%), or mixed with commercially-available clinically-common local anesthetic drugs to prepare a mixed solution with a specific proportion, and the 0.75% levobupivacaine was used as the positive control compound. The experimental method was as follows: male SD rats weighing 180-300 g were shaved off back hair 1 day before the experiment, and a circular skin area with a diameter of 4 cm was exposed. 0.4 mL of the drug solution was subcutaneously injected to the exposed circular center on the back using a 1 mL syringe to form a skin mound. After 1 minute, the first measurement was performed. Each of 8 random parts around the center of the injection site was stimulated once by acupuncture of 15 g force using a 26G needle (the stimulation site was no more than 1 cm away from the injection center). […] If there was no such behavior, it was considered that the local anesthetic effect existed. […] Except for the first measurement, the measurement was performed every 2 hours within 12 hours after the administration, and every 6 hours after 12 hours after the administration. 8 rats were used for each drug for the experiment.

rats = experiment: Mortality rate after injection of drugs through tail vein; format: in vivo, rat; settings: 0.4 mL through tail vein, 10 rats
Method: 0.2% aqueous solution of the compounds of the present invention and 0.75% levobupivacaine solution were injected into the rats through tail vein in 0.4 mL, and the mortality rate was observed. Each drug was injected into 10 rats (half male and half female, weighing 290-310).

[2] = background, literature; cited from earlier work
[3] = 0.5%, 0.2 mL near left sciatic nerve
[4] = 0.5 + 0.35% bupivacaine hydrochloride, 0.2 mL near sciatic nerve
[5] = 1.0%, 0.2 mL near left sciatic nerve
[6] = 2.0%, 0.2 mL near left sciatic nerve
[7] = 0.15 + 0.35% bupivacaine hydrochloride
[8] = 0.5 + 0.35% lidocaine hydrochloride, 0.2 mL near sciatic nerve
[9] = 0.15 + 0.35% lidocaine hydrochloride
[10] = 0.75%, 0.2 mL near left sciatic nerve
[11] = 0.5 + 0.15% tetracaine hydrochloride, 0.2 mL near sciatic nerve
[12] = 0.15 + 0.15% tetracaine hydrochloride

| SMILES | Duration of local anesthesia [1, 3] [h] | Duration of local anesthesia [1, 5] [h] | Duration of local anesthesia [1, 6] [h] | Duration of local anesthesia (male SD rats; 0.2%, rat back) [h] | Duration of local anesthesia (male SD rats; 0.5%, rat back) [h] | Mortality rate % (rats; 0.2% aqueous solution) [%] | also measured |
| --- | --- | --- | --- | --- | --- | --- | --- |
| CC[N+](CC)(CC)CC(=O)Nc1c(C)cc(OC(C)=O)cc1C [Compound 3] | 10 to 12 | 18 to 30 | 54 to 96 | 8 to 14 | 12 to 18 | 0 | Duration of local anesthesia [1, 4]: 24 to 36 h; Duration of local anesthesia (male SD rats; [7]): 18 to 24 h |
| CCCCCN(C)CC(=O)Oc1cc(C)c(NC(=O)C[N+](CC)(CC)CC)c(C)c1 [Compound 28] | 30 to 36 | 48 to 60 | 120 to 144 | 36 to 48 | 54 to 72 | 0 | Duration of local anesthesia [1, 8]: 48 to 54 h; Duration of local anesthesia (male SD rats; [9]): 54 to 66 h |
| CCCCN1CCCCC1C(=O)Nc1c(C)cccc1C (stereo not drawn) [bupivacaine, reference compound] | – | – | – | – | – | – | Duration of local anesthesia [1, 10]: 2 to 6 h; Duration of local anesthesia (male SD rats; 0.75%, rat back): 4 to 6 h |
| CCCCN1CCCC[C@H]1C(=O)Nc1c(C)cccc1C [Levobupivacaine hydrochloride, reference compound] | – | – | – | – | – | – | Duration of local anesthesia [1, 10]: 2 to 6 h; Duration of motor block ([1]; 0.75%, compared with sensory block): basically the same as that of the sensory block; Block of motor function of the hindlimb ([1]; 0.75%, side injected with the drug): significantly blocked the motor function; Duration of local anesthesia (male SD rats; 0.75%, rat back, hydrochloride): 4 to 6 h; Duration of local anesthesia (male SD rats; 0.75%, rat back, listed as levobupivacaine, hydrochloride): 4 to 6 h; Mortality rate % (rats; 0.75% solution, hydrochloride): 70%; Mortality rate % (rats; 0.75% solution, listed as levobupivaca, hydrochloride): death of most animals; Mortality rate % (rats; 0.75% solution, listed as levobupivacaine, hydrochloride): 70% |
| CCCCCOC(=O)Oc1cc(C)c(NC(=O)C[N+](CC)(CC)CC)c(C)c1 [Compound 27] | 12 to 24 | 30 to 42 | 96 to 144 | 18 to 30 | 36 to 48 | 0 | Duration of local anesthesia ([1]; 0.5 + 0.5% lidocaine hydrochloride, 0.2 mL near sciatic nerve): 36 to 66 h; Duration of local anesthesia (male SD rats; 0.15 + 0.5% lidocaine hydrochloride): 36 to 60 h |
| C=CC[N+]1(CC(=O)Nc2c(C)cc(OC(=O)CCC)cc2C)CCCCC1 [Compound 26] | 24 to 30 | 48 to 60 | 96 to 160 | 24 to 36 | 54 to 66 | 0 | Duration of local anesthesia ([1]; 0.5 + 0.35% levobupivacaine hydrochloride, 0.2 mL near sciatic nerve): 36 to 48 h; Duration of local anesthesia (male SD rats; 0.15 + 0.35% levobupivacaine hydrochloride): 42 to 54 h |
| CC[N+](CC)(CCO)CC(=O)Nc1c(C)cc(OC(=O)CCCc2ccc(Cl)cc2)cc1C [Compound 31] | 12 to 18 | 24 to 30 | 72 to 120 | 24 to 30 | 36 to 54 | 0 | Duration of local anesthesia [1, 8]: 24 to 42 h; Duration of local anesthesia (male SD rats; [9]): 36 to 42 h |
| CC[N+](CC)(CC)CC(=O)Nc1c(C)cc(OC(=O)CCCCCCCN2CCCCC2C(=O)Nc2c(C)cccc2C)cc1C (stereo not drawn) [Compound 50] | 24 to 30 | 36 to 48 | 96 to 120 | 18 to 30 | 24 to 48 | 0 | Duration of local anesthesia [1, 11]: 36 to 60 h; Duration of local anesthesia (male SD rats; [12]): 42 to 54 h |
| CC[N+](CC)(CCO)CC(=O)Nc1c(C)cc(OCCCCN2CCCCC2C(=O)Nc2c(C)cccc2C)cc1C (stereo not drawn) [Compound 53] | 30 to 36 | 42 to 54 | 72 to 84 | 24 to 30 | 48 to 54 | 0 | Duration of local anesthesia [1, 11]: 42 to 66 h; Duration of local anesthesia (male SD rats; [12]): 36 to 48 h |
| CCN(CC)CC(=O)Nc1c(C)cccc1C [lidocaine] | – | – | – | – | – | – | Duration of local anesthesia [2]: 2 h |
| CC[N+](CC)(CC)CC(=O)Nc1c(C)cc(OC(=O)OCCCN2CCCCC2C(=O)Nc2c(C)cccc2C)cc1C (stereo not drawn) [Compound 48] | 24 to 36 | 54 to 72 | 120 to 160 | 36 to 54 | 60 to 78 | 0 | Duration of local anesthesia [1, 11]: 60 to 72 h; Duration of local anesthesia (male SD rats; [12]): 66 to 72 h |
| CCN(CCCCCOc1cc(C)c(NC(=O)C[N+](CC)(CC)CC)c(C)c1)CC(=O)Nc1c(C)cccc1C [Compound 45] | 18 to 24 | 30 to 42 | 96 to 120 | 24 to 36 | 42 to 60 | 0 | Duration of local anesthesia [1, 11]: 36 to 42 h; Duration of local anesthesia (male SD rats; [12]): 36 to 48 h |
| CCCC(=O)Oc1cc(C)c(NC(=O)C2CCCC[N+]2(C)CCC)c(C)c1 (stereo not drawn) [Compound 33] | 24 to 30 | 48 to 66 | 120 to 144 | 36 to 54 | 60 to 72 | 0 | Duration of local anesthesia [1, 11]: 60 to 84 h; Duration of local anesthesia (male SD rats; [12]): 66 to 84 h |
| CC[N+](CC)(CC)CC(=O)Nc1c(C)cc(OC(C)C)cc1C [Compound 15] | 12 to 18 | 24 to 36 | 120 to 144 | 24 to 30 | 42 to 54 | 0 | Duration of local anesthesia [1, 4]: 30 to 42 h; Duration of local anesthesia (male SD rats; [7]): 36 to 42 h |
| CC[N+](CC)(CC)CC(=O)Nc1c(C)cc(O)cc1C [Compound 1] | 4 to 10 | 12 to 18 | 30 to 48 | 6 to 8 | 10 to 12 | 0 | Duration of local anesthesia [1, 4]: 18 to 30 h; Duration of local anesthesia (male SD rats; [7]): 24 to 30 h |
| CC[N+](CC)(CC)CC(=O)Nc1c(C)cc(N)cc1C [Compound 7] | <2 | <2 | 2 to 4 | 2 to 4 | 2 to 4 | – | Duration of local anesthesia [1, 4]: 2 to 4 h; Duration of local anesthesia (male SD rats; [7]): 4 to 6 h; Local anesthetic effect at the first measurement (male SD rats; injections of 0.2% and 0.5%, first measurement 1 minute after subcutaneous injection): not effective |
| CCCCCCOc1cc(C)c(NC(=O)C[N+](CC)(CC)CC)c(C)c1 [Compound 17] | 24 to 42 | 42 to 66 | 96 to 144 | 36 to 48 | 54 to 60 | 0 | Duration of local anesthesia [1, 4]: 48 to 66 h; Duration of local anesthesia (male SD rats; [7]): 54 to 72 h |

— patent US20230183169A1, “AROMATIC COMPOUND, PREPARATION METHOD THEREFOR AND USE THEREOF IN DRUG” (SICHUAN ACADEMY OF MEDICAL SCIENCES - SICHUAN PROVINCIAL …, priority 2020, published 2023)
